Source: PubChem BioAssay (NCI)
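How tested: cells in 96-well plates exposed to compound for 48 hours at five concentrations. Here, GI50 denotes the concentration required for 50% inhibition of growth. TGI: concentration producing complete growth inhibition.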

Experiments:
Assay in all cases: NCI anticancer screen, dose series, 48 h
SR leukemia = tested on: SR leukemia
A498 renal = tested on: A498 renal
SF-268 CNS = tested on: SF-268 CNS
SK-MEL-5 melanoma = tested on: SK-MEL-5 melanoma
HCT-15 colon = tested on: HCT-15 colon
T-47D breast = tested on: T-47D breast
SK-MEL-2 melanoma = tested on: SK-MEL-2 melanoma
UO-31 renal = tested on: UO-31 renal
CCRF-CEM leukemia = tested on: CCRF-CEM leukemia
NCI/ADR-RES ovarian = tested on: NCI/ADR-RES ovarian
NCI-H460 lung = tested on: NCI-H460 lung
SF-539 CNS = tested on: SF-539 CNS
IGROV1 ovarian = tested on: IGROV1 ovarian
LOX IMVI melanoma = tested on: LOX IMVI melanoma
HOP-62 NSCLC = tested on: HOP-62 NSCLC
MDA-MB-231 breast = tested on: MDA-MB-231 breast
OVCAR-3 ovarian = tested on: OVCAR-3 ovarian
M14 melanoma = tested on: M14 melanoma
MDA-MB-435 = tested on: MDA-MB-435
CAKI-1 renal = tested on: CAKI-1 renal
UACC-62 melanoma = tested on: UACC-62 melanoma
SW-620 colon = tested on: SW-620 colon
A549 NSCLC = tested on: A549 NSCLC
KM12 colon = tested on: KM12 colon
K-562 leukemia = tested on: K-562 leukemia
HCC-2998 colon = tested on: HCC-2998 colon
SN12C renal = tested on: SN12C renal
MALME-3M melanoma = tested on: MALME-3M melanoma
SNB-75 CNS = tested on: SNB-75 CNS
NCI-H226 lung = tested on: NCI-H226 lung
OVCAR-4 ovarian = tested on: OVCAR-4 ovarian
SK-OV-3 ovarian = tested on: SK-OV-3 ovarian
U251 CNS = tested on: U251 CNS
NCI-H23 lung = tested on: NCI-H23 lung
SNB-19 CNS = tested on: SNB-19 CNS
EKVX NSCLC = tested on: EKVX NSCLC
COLO 205 colon = tested on: COLO 205 colon
NCI-H522 lung = tested on: NCI-H522 lung
DU-145 prostate = tested on: DU-145 prostate
RPMI-8226 leukemia = tested on: RPMI-8226 leukemia
SK-MEL-28 melanoma = tested on: SK-MEL-28 melanoma
HCT-116 colon = tested on: HCT-116 colon
786-0 renal = tested on: 786-0 renal
HL-60(TB) leukemia = tested on: HL-60(TB) leukemia
HS 578T breast = tested on: HS 578T breast
MOLT-4 leukemia = tested on: MOLT-4 leukemia
MCF7 breast = tested on: MCF7 breast
SF-295 CNS = tested on: SF-295 CNS
ACHN renal = tested on: ACHN renal
OVCAR-5 ovarian = tested on: OVCAR-5 ovarian
HT29 colon = tested on: HT29 colon
PC-3 prostate = tested on: PC-3 prostate
HOP-92 NSCLC = tested on: HOP-92 NSCLC
TK-10 renal = tested on: TK-10 renal
OVCAR-8 ovarian = tested on: OVCAR-8 ovarian

In the case of `Cc1sc(C(=O)Nc2cc(C(=O)NCCCN(C)C)n(C)c2)cc1NC(=O)CCCN1C(=O)c2cccc3cccc(c23)C1=O`, the GI50 (SR leukemia) is reported as > 100 µM, the TGI (SR leukemia) is reported as > 100 µM and the GI50 (A498 renal) is reported as > 100 µM. The TGI (A498 renal) was > 100 µM, the GI50 (SF-268 CNS) was > 100 µM and the TGI (SF-268 CNS) was > 100 µM. The GI50 (SK-MEL-5 melanoma) was 38.2 µM, the TGI (SK-MEL-5 melanoma) was > 100 µM and the GI50 (HCT-15 colon) was > 100 µM. The TGI (HCT-15 colon) was > 100 µM, the GI50 (T-47D breast) was > 100 µM and the TGI (T-47D breast) was > 100 µM. For the same compound, the GI50 (SK-MEL-2 melanoma) was > 100 µM, the TGI (SK-MEL-2 melanoma) was > 100 µM and the GI50 (UO-31 renal) was > 100 µM. For the same compound, the TGI (UO-31 renal) was > 100 µM, the GI50 (CCRF-CEM leukemia) was > 100 µM and the TGI (CCRF-CEM leukemia) was > 100 µM. For the same compound, the GI50 (NCI/ADR-RES ovarian) was > 100 µM, the TGI (NCI/ADR-RES ovarian) was > 100 µM and the GI50 (NCI-H460 lung) was > 100 µM. For the same compound, the TGI (NCI-H460 lung) was > 100 µM, the GI50 (SF-539 CNS) was > 100 µM and the TGI (SF-539 CNS) was > 100 µM. The GI50 (IGROV1 ovarian) was > 100 µM, the TGI (IGROV1 ovarian) was > 100 µM and the GI50 (LOX IMVI melanoma) was > 100 µM. The TGI (LOX IMVI melanoma) was > 100 µM, the GI50 (HOP-62 NSCLC) was > 100 µM and the TGI (HOP-62 NSCLC) was > 100 µM. The GI50 (MDA-MB-231 breast) was > 100 µM, the TGI (MDA-MB-231 breast) was > 100 µM and the GI50 (OVCAR-3 ovarian) was > 100 µM. The TGI (OVCAR-3 ovarian) was > 100 µM, the GI50 (M14 melanoma) was > 100 µM and the TGI (M14 melanoma) was > 100 µM. For the same compound, the GI50 (MDA-MB-435) was > 100 µM, the TGI (MDA-MB-435) was > 100 µM and the GI50 (CAKI-1 renal) was > 100 µM. For the same compound, the TGI (CAKI-1 renal) was > 100 µM, the GI50 (UACC-62 melanoma) was > 100 µM and the TGI (UACC-62 melanoma) was > 100 µM. The GI50 (SW-620 colon) was > 100 µM, the TGI (SW-620 colon) was > 100 µM and the GI50 (A549 NSCLC) was > 100 µM. The TGI (A549 NSCLC) was > 100 µM, the GI50 (KM12 colon) was > 100 µM and the TGI (KM12 colon) was > 100 µM. The GI50 (K-562 leukemia) was > 100 µM, the TGI (K-562 leukemia) was > 100 µM and the GI50 (HCC-2998 colon) was > 100 µM. For the same compound, the TGI (HCC-2998 colon) was > 100 µM, the GI50 (SN12C renal) was > 100 µM and the TGI (SN12C renal) was > 100 µM. For the same compound, the GI50 (MALME-3M melanoma) was 26 µM, the TGI (MALME-3M melanoma) was > 100 µM and the GI50 (SNB-75 CNS) was > 100 µM. For the same compound, the TGI (SNB-75 CNS) was > 100 µM, the GI50 (NCI-H226 lung) was > 100 µM and the TGI (NCI-H226 lung) was > 100 µM. The GI50 (OVCAR-4 ovarian) was 41 µM, the TGI (OVCAR-4 ovarian) was > 100 µM and the GI50 (SK-OV-3 ovarian) was > 100 µM. The TGI (SK-OV-3 ovarian) was > 100 µM, the GI50 (U251 CNS) was > 100 µM and the TGI (U251 CNS) was > 100 µM. For the same compound, the GI50 (NCI-H23 lung) was > 100 µM, the TGI (NCI-H23 lung) was > 100 µM and the GI50 (SNB-19 CNS) was > 100 µM. For the same compound, the TGI (SNB-19 CNS) was > 100 µM, the GI50 (EKVX NSCLC) was > 100 µM and the TGI (EKVX NSCLC) was > 100 µM. For the same compound, the GI50 (COLO 205 colon) was > 100 µM, the TGI (COLO 205 colon) was > 100 µM and the GI50 (NCI-H522 lung) was > 100 µM. For the same compound, the TGI (NCI-H522 lung) was > 100 µM, the GI50 (DU-145 prostate) was > 100 µM and the TGI (DU-145 prostate) was > 100 µM. For the same compound, the GI50 (RPMI-8226 leukemia) was > 100 µM, the TGI (RPMI-8226 leukemia) was > 100 µM and the GI50 (SK-MEL-28 melanoma) was > 100 µM. The TGI (SK-MEL-28 melanoma) was > 100 µM, the GI50 (HCT-116 colon) was > 100 µM and the TGI (HCT-116 colon) was > 100 µM. The GI50 (786-0 renal) was > 100 µM, the TGI (786-0 renal) was > 100 µM and the GI50 (HL-60(TB) leukemia) was > 100 µM. For the same compound, the TGI (HL-60(TB) leukemia) was > 100 µM, the GI50 (HS 578T breast) was > 100 µM and the TGI (HS 578T breast) was > 100 µM. For the same compound, the GI50 (MOLT-4 leukemia) was 88.3 µM, the TGI (MOLT-4 leukemia) was > 100 µM and the GI50 (MCF7 breast) was > 100 µM. For the same compound, the TGI (MCF7 breast) was > 100 µM, the GI50 (SF-295 CNS) was > 100 µM and the TGI (SF-295 CNS) was > 100 µM. For the same compound, the GI50 (ACHN renal) was > 100 µM, the TGI (ACHN renal) was > 100 µM and the GI50 (OVCAR-5 ovarian) was > 100 µM. For the same compound, the TGI (OVCAR-5 ovarian) was > 100 µM, the GI50 (HT29 colon) was > 100 µM and the TGI (HT29 colon) was > 100 µM. For the same compound, the GI50 (PC-3 prostate) was > 100 µM, the TGI (PC-3 prostate) was > 100 µM and the GI50 (HOP-92 NSCLC) was > 100 µM. For the same compound, the TGI (HOP-92 NSCLC) was > 100 µM, the GI50 (TK-10 renal) was > 100 µM and the TGI (TK-10 renal) was > 100 µM.
Work on `Nc1nc(Cl)cc(OCC2(O)CC(COC(=O)c3ccccc3)C2)n1` (stereo not given) yielded a GI50 (SR leukemia) of 32.1 µM, a GI50 (SK-MEL-5 melanoma) of 37.3 µM and a GI50 (T-47D breast) of 30.7 µM. It also gave a GI50 (UO-31 renal) of 91.5 µM, a GI50 (CCRF-CEM leukemia) of 47.9 µM and a GI50 (NCI/ADR-RES ovarian) of 39.5 µM. The GI50 (OVCAR-8 ovarian) was 71 µM, the GI50 (LOX IMVI melanoma) was 76.1 µM and the GI50 (MDA-MB-231 breast) was 48.1 µM. The GI50 (OVCAR-3 ovarian) was 82.2 µM, the GI50 (A549 NSCLC) was 67.8 µM and the GI50 (KM12 colon) was 30.6 µM. The GI50 (K-562 leukemia) was 40.3 µM, the GI50 (SNB-75 CNS) was 53 µM and the GI50 (NCI-H226 lung) was 81 µM. For the same compound, the GI50 (OVCAR-4 ovarian) was 38.2 µM, the GI50 (U251 CNS) was 76.1 µM and the GI50 (NCI-H23 lung) was 51.8 µM. The GI50 (SNB-19 CNS) was 34.1 µM, the GI50 (EKVX NSCLC) was 13.2 µM and the GI50 (COLO 205 colon) was 46.6 µM. It also gave a GI50 (RPMI-8226 leukemia) of 85.5 µM, a GI50 (HCT-116 colon) of 82.9 µM and a GI50 (HL-60(TB) leukemia) of 58.4 µM. It also gave a GI50 (HS 578T breast) of 46.6 µM, a GI50 (MOLT-4 leukemia) of 26.9 µM and a TGI (MOLT-4 leukemia) of 83.7 µM. It also gave a GI50 (MCF7 breast) of 47.7 µM, a GI50 (SF-295 CNS) of 78.5 µM and a GI50 (HT29 colon) of 70 µM.
For `COc1ccc2c(CCCC(c3ccccc3)c3ccccc3)c3[n+](cc2c1OC)CCc1cc2c(cc1-3)OCO2`, the GI50 (A498 renal) was 0.0969 µM, the TGI (A498 renal) was 0.996 µM and the GI50 (SK-MEL-5 melanoma) was 0.149 µM. The TGI (SK-MEL-5 melanoma) was 0.284 µM, the GI50 (SK-MEL-2 melanoma) was 0.271 µM and the TGI (SK-MEL-2 melanoma) was 1.11 µM. For the same compound, the GI50 (CCRF-CEM leukemia) was 0.453 µM, the TGI (CCRF-CEM leukemia) was 2.56 µM and the GI50 (NCI/ADR-RES ovarian) was 4.83 µM. For the same compound, the TGI (NCI/ADR-RES ovarian) was 38.9 µM, the GI50 (MDA-MB-435) was 0.293 µM and the TGI (MDA-MB-435) was 1.15 µM. The GI50 (CAKI-1 renal) was 2.27 µM, the TGI (CAKI-1 renal) was 6.51 µM and the GI50 (UACC-62 melanoma) was 0.243 µM. The TGI (UACC-62 melanoma) was 1.06 µM, the GI50 (SW-620 colon) was 0.323 µM and the TGI (SW-620 colon) was 1.39 µM. The GI50 (K-562 leukemia) was 0.318 µM, the TGI (K-562 leukemia) was 1.74 µM and the GI50 (SK-OV-3 ovarian) was 0.303 µM. It also gave a TGI (SK-OV-3 ovarian) of 1.05 µM, a GI50 (DU-145 prostate) of 0.47 µM and a TGI (DU-145 prostate) of 1.72 µM. It also gave a GI50 (HS 578T breast) of 0.37 µM, a TGI (HS 578T breast) of 2.1 µM and a GI50 (MOLT-4 leukemia) of 0.376 µM. For the same compound, the TGI (MOLT-4 leukemia) was 2.07 µM, the GI50 (HT29 colon) was 0.219 µM and the TGI (HT29 colon) was 1.17 µM. It also gave a GI50 (TK-10 renal) of 0.324 µM and a TGI (TK-10 renal) of 1.29 µM.
